Six molecules from EP4461731A1, “LIGANDS OF THE M6A-RNA READERS” (Universität Zürich, priority 2023, dated 2024) can be followed below.

Read-outs that look alike come from different tables or passages of the source.

Broadly, the GI50 is the concentration at which growth is held to half of that of the control.

In test [1] the test system is Cells. Briefly: cells. To be noted: 72 h.
Test [2] concerns Cells. The conditions noted are these: read-out: Antiprolif. activity GI50; 72 h, CellTiter-Glo; cell line not named. A general note: Cellular ATP, detected with luciferase, serves as a proxy for viable cell number.
The mark [3] stands for this setting: read-out: Antiprolif. activity GI50.
The mark [4] stands for this setting: read-out: Antiprolif. activity GI50, 72 h, CellTiter-Glo, cell line not named.

With `CNc1nc(Cl)nc2c1ncn2Cc1ccc(OC)c(Cl)c1` [FE150, 2-chloro-9-(3-chloro-4-methoxybenzyl)-N-methyl-9H-purin-6-amine], the GI50 in the test on Cells [1] (setting [3]) is at most 10 µM.
Regarding `CNc1nc(Cl)nc2c1ncn2Cc1cccc(C(=O)OC)c1` [ZA347, Methyl 3-((2-chloro-6-(methylamino)-9H-purin-9-yl)methyl)benzoate], the GI50 with Cells [1] (setting [4]) was at most 10 µM.
Take `CNc1nc(Cl)nc2c1ncn2Cc1ccc(C(=O)OC)cc1` [ZA311, Methyl 4-((2-chloro-6-(methylamino)-9H-purin-9-yl)methyl)benzoate]: in the test on Cells [1] (setting [3]), the GI50 was at most 10 µM.
For `CNc1nc(Cl)nc2c1ncn2Cc1ccccc1NS(C)(=O)=O` [ZA364, N-(2-((2-chloro-6-(methylamino)-9H-purin-9-yl)methyl)phenyl)methanesulfonamide], the GI50 in the test with Cells [1] (setting [4]) came to 21 µM.
Take `CNc1nc(Cl)nc2c1ncn2Cc1cc(Cl)ccc1NS(C)(=O)=O` [ZA400, N-(4-chloro-2-((2-chloro-6-(methylamino)-9H-purin-9-yl)methyl)phenyl) methanesulfonamide]: the results for the GI50 with Cells [1] (setting [4]) and with Cells [2] were 31 µM and 21 µM, respectively.
As for `CNc1nc(Cl)nc2c1ncn2Cc1cccc(Cl)c1` [ZA349, 2-chloro-9-(3-chlorobenzyl)-N-methyl-9H-purin-6-amine], the concentration for 50% growth inhibition (GI50) with Cells [1] (setting [3]) is at most 10 µM.
